According to patent publication US8962657B2, “Aryl derivatives and uses thereof” (Jacobus Pharmaceutical Company, Inc., priority 2012, dated 2015):
Marks after values point to notes of the source that are not given here.

What was measured:
[1] = system: P. falciparum strain D6 (sensitive to chloroquine and pyrimethamine); test: [3H]-hypoxanthine growth inhibition assay, P. falciparum D6; format: cell-based; details: Plasmodium falciparum; P. falciparum D6, [3H]-hypoxanthine incorporation; read-out: D6 IC50
Method: (§1) The potential for antimalarial activity against Plasmodium falciparum was determined by measuring the incorporation of tritiated hypoxanthine into parasitized red blood cells.
(§2) Stock solutions of the test compounds and the reference drug chloroquine (CQ) (Sigma Chemicals C-6628, Lot #059H0919) were prepared in silanized glass vials with AquaSil™ (Pierce, USA) to minimize absorption of the compounds to glassware. All test compounds were dissolved in DMSO (Sigma Cat No. # D8418) to 1 mM concentration, whereas CQ was dissolved in 50% methanol at a concentration of 1.6 mg/ml (base). Stock solutions were stored at −20° C.
(§3) The P. falciparum laboratory adapted strains utilized in this project (Table 1) were in vitro cultured and routinely maintained in RPMI-1640-LPLF complete medium, which contained low concentrations of para-amino benzoic acid (0.0005 mg/L) and folic acid (0.01 mg/L).
(§4) The low concentration of folic acid in RPMI-1640-LPLF prevents inhibition of the compound if its activity targets the parasite's folate metabolic pathway. Parasites were cultured in human red blood cells (RBCs) in vitro at 37° C. in special gas mixture (5% O2, 5% CO2 and 90% N2) as described Trager and Jensen (1979 Science 193:673-675).
(§5) Base cultivation medium consisted of 10.4 g/L RPMI-1640-LPLF powder (Gibco BRL), 5.97 g/L HEPES buffer (MP Biomedicals, USA), 2.0 g/L D-glucose (BDH chemicals, Australia), 0.05 g/L hypoxanthine (Sigma, USA) and 40 mg/L gentamycin (Pfizer, Australia). The pH of the medium was adjusted to 6.9 and the solution was filtered using 0.2 μm pore size (AcroCap, Gelman Science, USA). […] For [^3H]-hypoxanthine inhibition growth assay, RPMI-1640-LPLF complete medium which lacked [^3H]-hypoxanthine ([^3H]-RPMI-1640-LPLF) was used to prevent uptake of hypoxanthine by parasites, as radioactive hypoxanthine uptake is measured as a surrogate marker of growth. […]
(§6) Red blood cells (RBC) were required for P. falciparum parasites to proliferate in vitro. […] Following the final wash, the haematocrit was measured as the percent of RBC to total culture volume. […]

[2] = system: P. falciparum strain W2 (resistant to chloroquine and pyrimethamine); test: [3H]-hypoxanthine growth inhibition assay, P. falciparum W2; format: cell-based; details: Plasmodium falciparum; P. falciparum W2, [3H]-hypoxanthine incorporation; read-out: W2 IC50
Method: as §1, §2, §3, §4, §5, §6

[3] = system: Plasmodium berghei (KBG-173 strain); test: Plasmodium berghei assay in vivo (modified Thompson Test), survival of infected mice; design: species or system Charles River CD-1 mice; details: oral bid on days 3, 4 and 5; for Average Days Survival: 31 day experiment
Method: In vivo antimalarial activity was tested in male or female Charles River CD-1 mice that were 4-5 weeks old and weighed 20-25 g They were housed in groups of 3 or 4 in standard plastic cages with wire tops, Bed-o-cob® bedding, 12 hr/day of light, and maintained at 75° F. They were fed a standard Ralston Purina mouse chow and the cages and bottles were changed twice a week. Test compounds were ground in a mortar and pestle and diluted with enough vehicle to give a volume of 10 mL/kg of mouse weight. The oral doses were prepared in 0.5% hydroxyethylcellulose (Union Carbide Corp. WP 4400)/0.1% Tween-80 (Fisher Scientific T164-500). The amount of drug was calculated on the free base weight. The mice were infected intraperitoneally on day 0 with 5×10^4 erythrocytes parasitized with Plasmodium berghei (KBG-173 strain) from a donor mouse having a parasitemia between 5-10%. On days 3, 4 and 5 the test compounds were administered bid, spaced 6 hr apart, by oral gavage to the mice. Activity was measured by survival, with full activity defined as all animals living at day 31. Partial activity is defined as days of increased survival versus the infected non-treated controls. This in vivo model is a modification of the Thompson Test. For further description see Ager, A. L, Jr. Rodent Malaria Models. In Handbook of Experimental Pharmacology: Antimalarial Drugs. 1. 68/1; Peters, W., Richards, W. H. G., Eds.: Springer-Verlag: Berlin, 1984, pp. 231-33.

[4] = Plasmodium berghei, 744 h, 16 mg/kg/day, read-out: Number of mice alive at day 31 (converted)

CC(C)(C)NCc1cc(C(C)(C)C)cc(-c2ccc(Cl)c(C(F)(F)F)c2)c1O.Cl [Example 23, 5-(tert-Butyl)-3-((tert-butylamino)methyl)-4′-chloro-3′-(trifluoromethyl)-[1,1′-biphenyl]-2-ol hydrochloride]
IC50 [1]: 0.021 µM
IC50 [2]: 0.009 µM
Average Days Survival ([3]; 1 mg/kg/day): >15.3 days
Average Days Survival ([3]; 2 mg/kg/day): >7 days
Average Days Survival ([3]; 4 mg/kg/day): >31* Days
Average Days Survival ([3]; 8 mg/kg/day): >31* Days
Average Days Survival ([3]; 16 mg/kg/day): >31* Days
Average Days Survival ([3]; 32 mg/kg/day): >31* Days
responders at 1 mg/kg ([3]; Plasmodium berghei, 744 h, 1 mg/kg/day, read-out: Number of mice alive at day 31 (converted)): 42.9%
responders at 2 mg/kg ([3]; Plasmodium berghei, 744 h, 2 mg/kg/day, read-out: Number of mice alive at day 31 (converted)): 85.7%
responders at 4 mg/kg ([3]; Plasmodium berghei, 744 h, 4 mg/kg/day, read-out: Number of mice alive at day 31 (converted)): 100%
responders at 8 mg/kg ([3]; Plasmodium berghei, 744 h, 8 mg/kg/day, read-out: Number of mice alive at day 31 (converted)): 100%
responders at 16 mg/kg [3, 4]: 100%
responders at 32 mg/kg ([3]; Plasmodium berghei, 744 h, 32 mg/kg/day, read-out: Number of mice alive at day 31 (converted)): 100%

CC(C)(C)NCc1cc(-c2ccc(Cl)cc2)nc(-c2ccc(Cl)cc2)c1O.Cl [Example 56, 4-((tert-Butylamino)methyl)-2,6-bis(4-chlorophenyl)pyridin-3-ol hydrochloride]
IC50 [1]: 0.032 µM
IC50 [2]: 0.012 µM
Average Days Survival ([3]; 16 mg/kg/day): >19.3 days
Average Days Survival ([3]; 64 mg/kg/day): >20 days
responders at 16 mg/kg [3, 4]: 71.4%
responders at 64 mg/kg ([3]; Plasmodium berghei, 744 h, 64 mg/kg/day, read-out: Number of mice alive at day 31 (converted)): 85.7%
